In brackets after ≈: the same amount, converted by molar mass.
How the values were obtained:
[1] = test system: Escherichia coli; experiment: Antibacterial activity against Escherichia coli ATCC 49696 after 20 hrs by microdilution assay; type: functional; settings: ATCC 49696, 20 h
[2] = test system: Staphylococcus aureus; experiment: Antibacterial activity against methicillin-sensitive Staphylococcus aureus ATCC 13150 after 20 hrs by microdilution assay; type: functional
[3] = Toxicity in sheep erythrocytes assessed as hemolysis at 100 uM after 90 mins; type: cell-based, Ovis aries, Erythrocyte; settings: read-out: Activity
[4] = test system: Staphylococcus aureus; experiment: Antibacterial activity against Staphylococcus aureus; type: functional
[5] = test system: Staphylococcus aureus; experiment: Antibacterial activity against methicillin-resistant Staphylococcus aureus; type: functional
[6] = Toxicity in sheep erythrocytes assessed as hemolysis at 25 uM after 90 mins; type: cell-based, Ovis aries, Erythrocyte; settings: read-out: Activity
[7] = Toxicity in sheep erythrocytes assessed as hemolysis at 300 uM after 90 mins; type: cell-based, Ovis aries, Erythrocyte; settings: read-out: Activity
[8] = Staphylococcus aureus, ATCC 13150, 20 h, read-out: MIC

SMILES: COc1ccc(C(=O)/C=C/c2ccc(Cl)cc2)c(OC)c1
- MIC [1]: > 100 µM
- MIC [2, 8]: > 100 µM

SMILES: CN1CCC(c2ccc(O)c(C(=O)/C=C/c3ccccc3Cl)c2)CC1
- MIC [1]: > 100 µM
- MIC [2, 8]: 25 µM (≈ 8.9 µg/mL)
- hemolysis at 1.5 h, 100 µM [3]: 14.8%

SMILES: COc1cc(OC)c(C2CCN(C)CC2)cc1C(=O)/C=C/c1ccc(C)cc1
- MIC [1]: > 100 µM
- MIC [2, 8]: > 100 µM

SMILES: COc1ccccc1/C=C/C(=O)c1cc(C2CCN(C)CC2)c(OC)cc1OC
- MIC [1]: > 100 µM
- MIC [2, 8]: > 100 µM

SMILES: COc1ccc(/C=C/C(=O)c2cc(C3CCN(C)CC3)c(OC)cc2OC)cc1
- MIC [1]: > 100 µM
- MIC [2, 8]: > 100 µM

SMILES: COc1cc(OC)c(C2CCN(C)CC2)cc1C(=O)/C=C/c1ccccc1F
- MIC [1]: > 100 µM
- MIC [2, 8]: > 100 µM

SMILES: COc1cc(OC)c(C2CCN(C)CC2)cc1C(=O)/C=C/c1ccc(C(F)(F)F)cc1
- MIC [1]: > 100 µM
- MIC [2, 8]: 50 µM (≈ 21.7 µg/mL)

SMILES: COc1cc(OC)c(C2CCN(C)CC2)c(O)c1C(=O)/C=C/c1ccccc1Cl
- MIC [1]: > 100 µM
- MIC [2, 8]: 50 µM (≈ 20.8 µg/mL)

SMILES: COc1cc(OC)c(C2CCN(C)CC2)c(O)c1C(=O)/C=C/c1ccc(Cl)cc1
- MIC [1]: > 100 µM
- MIC [2, 8]: 25 µM (≈ 10.4 µg/mL)
- hemolysis at 1.5 h, 100 µM [3]: 5.5%

SMILES: COc1ccc(C(=O)/C=C/c2ccccn2)c(OC)c1
- MIC [1]: > 100 µM
- MIC [2, 8]: > 100 µM

SMILES: COc1ccc(C(=O)/C=C/c2ccc(N3CCN(C)CC3)cc2)c(OC)c1
- MIC [1]: > 100 µM
- MIC [2, 8]: > 100 µM

SMILES: COc1cc(OC)c(C2CCN(C)CC2)c(O)c1C(=O)/C=C/c1ccccc1
- MIC [1]: > 100 µM
- MIC [2, 8]: > 100 µM

SMILES: COc1cc(OC)c(C2CCN(C)CC2)c(O)c1C(=O)/C=C/c1ccccc1F
- MIC [1]: > 100 µM
- MIC [2, 8]: > 100 µM

SMILES: COc1cc(OC)c(C2CCN(C)CC2)c(O)c1C(=O)/C=C/c1ccc(C)cc1
- MIC [1]: > 100 µM
- MIC [2, 8]: 6.25 µM (≈ 2.47 µg/mL)
- hemolysis at 1.5 h, 100 µM [3]: 6.7%

SMILES: COc1ccccc1/C=C/C(=O)c1c(OC)cc(OC)c(C2CCN(C)CC2)c1O
- MIC [1]: > 100 µM
- MIC [2, 8]: 50 µM (≈ 20.6 µg/mL)

SMILES: COc1cccc(/C=C/C(=O)c2c(OC)cc(OC)c(C3CCN(C)CC3)c2O)c1
- MIC [1]: > 100 µM
- MIC [2, 8]: > 100 µM

SMILES: COc1cc(OC)c(C2CCN(C)CC2)c(O)c1C(=O)/C=C/c1cccc(Cl)c1
- MIC [1]: > 100 µM
- MIC [2, 8]: 6.25 µM (≈ 2.6 µg/mL)
- hemolysis at 1.5 h, 100 µM [3]: 6.5%

SMILES: COc1cc(OC)c(C2CCN(C)CC2)c(O)c1C(=O)/C=C/c1ccc(C#N)cc1
- MIC [1]: > 100 µM
- MIC [2, 8]: > 100 µM

SMILES: COc1cc(OC)c(C2CCN(C)CC2)cc1C(=O)/C=C/c1ccc(Cl)cc1
- MIC [1]: > 100 µM
- MIC [2, 8]: > 100 µM

SMILES: COc1cc(OC)c(C2CCN(C)CC2)cc1C(=O)/C=C/c1ccncc1
- MIC [1]: > 100 µM
- MIC [2, 8]: > 100 µM

SMILES: COc1cc(OC)c(C2CCN(C)CC2)c(O)c1C(=O)/C=C/c1ccc(N(C)C)cc1
- MIC [1]: > 100 µM
- MIC [2, 8]: 25 µM (≈ 10.6 µg/mL)
- hemolysis at 1.5 h, 100 µM [3]: 10.3%

SMILES: COc1cc(OC)c(C2CCN(C)CC2)cc1C(=O)/C=C/c1cccnc1
- MIC [1]: > 100 µM
- MIC [2, 8]: > 100 µM

SMILES: COc1cc(OC)c(N2CCC(N3CCCCC3)CC2)cc1C(=O)/C=C/c1ccccc1Cl
- MIC [1]: > 100 µM
- MIC [2, 8]: > 100 µM

SMILES: COc1cc(OC)c(C2CCN(C)CC2)cc1C(=O)/C=C/c1ccccn1
- MIC [1]: > 100 µM
- MIC [2, 8]: > 100 µM

SMILES: COc1cc(O)c(C(=O)/C=C/c2ccccc2)cc1C
- MIC [1]: > 100 µM
- MIC [2, 8]: > 100 µM

SMILES: COc1ccc(C2CCN(C)CC2)cc1C(=O)/C=C/c1ccccc1Cl
- MIC [1]: > 100 µM
- MIC [2, 8]: > 100 µM

SMILES: COc1ccc(C(=O)/C=C/c2ccccc2Cl)c(OC)c1
- MIC [1]: > 100 µM
- MIC [2, 8]: > 100 µM

SMILES: COc1ccc(C2CCN(C)CC2)cc1C(=O)/C=C/c1ccc(Cl)cc1
- MIC [1]: > 100 µM
- MIC [2, 8]: > 100 µM

SMILES: COc1ccc(C2CCN(C)CC2)cc1C(=O)/C=C/c1ccccc1
- MIC [1]: > 100 µM
- MIC [2, 8]: 100 µM (≈ 33.5 µg/mL)

SMILES: CCN1CCC(c2cc(C(=O)/C=C/c3ccccc3Cl)c(OC)cc2OC)CC1
- MIC [1]: > 100 µM
- MIC [2, 8]: > 100 µM

SMILES: CCN1CCC(c2cc(C(=O)/C=C/c3ccccc3)c(OC)cc2OC)CC1
- MIC [1]: > 100 µM
- MIC [2, 8]: > 100 µM

SMILES: CCN1CCC(c2cc(C(=O)/C=C/c3ccc(Cl)cc3)c(OC)cc2OC)CC1
- MIC [1]: > 100 µM
- MIC [2, 8]: 50 µM (≈ 20.7 µg/mL)

SMILES: CCN1CCC(c2cc(C(=O)/C=C/c3ccc(N4CCN(C)CC4)cc3)c(OC)cc2OC)CC1
- MIC [1]: > 100 µM
- MIC [2, 8]: > 100 µM

SMILES: CCN1CCC(c2cc(C(=O)/C=C/c3ccncc3)c(OC)cc2OC)CC1
- MIC [1]: > 100 µM
- MIC [2, 8]: > 100 µM

SMILES: COc1cc(OC)c(C2CCN(C)CC2)cc1C(=O)/C=C/c1ccc(N2CCN(C)CC2)cc1
- MIC [1]: > 100 µM
- MIC [2, 8]: > 100 µM

SMILES: COc1cc(O)c(C(=O)/C=C/c2ccccc2Cl)cc1C
- MIC [1]: > 100 µM
- MIC [2, 8]: > 100 µM

SMILES: COc1cc(OC)c(C2CCN(C)CC2)c(O)c1C(=O)/C=C/c1ccc(C(F)(F)F)cc1
- MIC [1]: > 100 µM
- MIC [2, 8]: > 100 µM

SMILES: COc1cc(OC)c(C2CCN(C)CC2)cc1C(=O)/C=C/c1ccccc1C
- MIC [1]: > 100 µM
- MIC [2, 8]: > 100 µM

SMILES: COc1cc(OC)c(C2CCN(C)CC2)cc1C(=O)/C=C/c1ccccc1
- MIC [1]: > 100 µM
- MIC [2, 8]: > 100 µM

SMILES: COc1cc(OC)c(C2CCN(C)CC2)c(O)c1C(=O)/C=C/c1ccccc1C
- MIC [1]: > 100 µM
- MIC [2, 8]: 50 µM (≈ 19.8 µg/mL)

SMILES: COc1cc(OC)c(C2CCN(C)CC2)c(O)c1C(=O)/C=C/c1ccc(N2CCN(C)CC2)cc1
- MIC [1]: > 100 µM
- MIC [2, 8]: > 100 µM

SMILES: COc1ccc(/C=C/C(=O)c2c(OC)cc(OC)c(C3CCN(C)CC3)c2O)cc1
- MIC [1]: > 100 µM
- MIC [2, 8]: 50 µM (≈ 20.6 µg/mL)

SMILES: COc1cc(OC)c(C2CCN(C)CC2)c(O)c1C(=O)/C=C/c1ccc(F)cc1
- MIC [1]: > 100 µM
- MIC [2, 8]: > 100 µM

SMILES: COc1ccc(C(=O)/C=C/c2cccnc2)c(OC)c1
- MIC [1]: > 100 µM
- MIC [2, 8]: > 100 µM

SMILES: COc1ccc(/C=C/C(=O)c2c(OC)cc(OC)c(C3CCN(C)CC3)c2O)c(OC)c1
- MIC [1]: > 100 µM
- MIC [2, 8]: > 100 µM

SMILES: COc1cc(O)c(C(=O)/C=C/c2ccccc2OC)cc1C
- MIC [1]: > 100 µM
- MIC [2, 8]: > 100 µM

SMILES: COc1ccc(/C=C/C(=O)c2cccc(N3CCNCC3)c2)c(OC)c1
- MIC [1]: > 100 µM
- MIC [2, 8]: 100 µM (≈ 35.2 µg/mL)

SMILES: COc1cc(OC)c(N2CCC(N3CCCCC3)CC2)cc1C(=O)/C=C/c1ccccc1F
- MIC [1]: > 100 µM
- MIC [2, 8]: > 100 µM

SMILES: O=C(/C=C/c1ccc(Cl)cc1)c1cccc(N2CCNCC2)c1
- MIC [1]: > 100 µM
- MIC [2, 8]: 25 µM (≈ 8.17 µg/mL)
- hemolysis at 1.5 h, 100 µM [3]: 11.6%

SMILES: COc1cc(O)c(C(=O)/C=C/c2ccc(F)cc2)cc1C1CCN(C)CC1
- MIC [1]: > 100 µM
- MIC [2, 8]: > 100 µM

SMILES: O=C(/C=C/c1ccccc1)c1cccc(N2CCNCC2)c1
- MIC [1]: > 100 µM
- MIC [2, 8]: > 100 µM

SMILES: O=C(O)c1ccc(C(=O)/C=C/c2cc(Br)cc(Br)c2)cc1
- MIC [4]: 2 µM (≈ 0.82 µg/mL)

SMILES: O=C(/C=C/c1ccccc1Cl)c1cccc(N2CCCCC2)c1
- MIC [1]: > 100 µM
- MIC [2, 8]: > 100 µM

SMILES: O=C(/C=C/c1ccc(Cl)cc1)c1cccc(N2CCCCC2)c1
- MIC [1]: > 100 µM
- MIC [2, 8]: > 100 µM

SMILES: COc1ccc(/C=C/C(=O)c2cccc(N3CCCCC3)c2)c(OC)c1
- MIC [1]: > 100 µM
- MIC [2, 8]: > 100 µM

SMILES: Cc1cc(C)cc(-c2ccc(N3CCNCC3)c(/C=C/C(=O)c3ccc(NCCN(C)C)cc3)c2)c1
- MIC [5]: 2 µM (≈ 0.965 µg/mL)

SMILES: O=C(/C=C/c1ccccc1Cl)c1cccc(N2CCNCC2)c1
- MIC [1]: > 100 µM
- MIC [2, 8]: > 100 µM

SMILES: O=C(O)c1ccc(C(=O)/C=C/c2cc(C(F)(F)F)cc(C(F)(F)F)c2)cc1
- MIC [4]: 2 µM (≈ 0.777 µg/mL)

SMILES: O=C(/C=C/c1ccccc1)c1cccc(N2CCCCC2)c1
- MIC [1]: > 100 µM
- MIC [2, 8]: > 100 µM

SMILES: COc1ccc(C(=O)/C=C/c2ccccc2)c(OC)c1
- MIC [1]: > 100 µM
- MIC [2, 8]: > 100 µM

SMILES: COc1cc(OC)c(C2CCN(C)CC2)cc1C(=O)/C=C/c1ccccc1Cl (stereo in doubt; 1-5)
- MIC [1]: > 100 µM
- MIC [2]: 25 µM (≈ 10 µg/mL)

SMILES: COc1cc(OC)c(C2CCN(C)CC2)cc1C(=O)/C=C/c1ccccc1Cl (stereo in doubt; 7-140)
- MIC [2]: >100 µM

SMILES: COc1ccc(C(=O)/C=C/c2ccncc2)c(OC)c1 [DILMEFONE]
- MIC [1]: > 100 µM
- MIC [2, 8]: > 100 µM

SMILES: C=CC(C)(C)c1cc(/C=C/C(=O)c2ccc(O)cc2)c(OC)cc1O [LICOAGROCHACONE A]
- MIC [1]: > 100 µM
- MIC [2, 8]: 6.3 µM (≈ 2.13 µg/mL)
- hemolysis at 1.5 h, 100 µM [3]: 19.9%
- MIC [5]: 18.4 µM (≈ 6.23 µg/mL)
- hemolysis at 1.5 h, 25 µM [6]: 11.6%
- hemolysis at 1.5 h, 300 µM [7]: 47.9%

SMILES: CC1(C)S[C@@H]2[C@H](NC(=O)Cc3ccccc3)C(=O)N2[C@H]1C(=O)O [PENICILLIN G]
- MIC [2, 8]: 0.1 µM (≈ 0.0334 µg/mL)
